Laboratory results: PMC10041525, “New Dual Inhibitors of Bacterial Topoisomerases with Broad-Spectrum Antibacterial Activity and In Vivo Efficacy against Vancomycin-Intermediate Staphylococcus aureus” (Journal of Medicinal Chemistry, 2023)
Where “and” joins values, the source holds several entries; their conditions need not be identical. Identical values can stand only once. Like-named read-outs stand apart in the source and are kept apart here.

Columns and labels:
[1] = molecular target: T1, DNA gyrase from E. coli (Escherichia coli, UniProt P0AES6); test: supercoiling HTS plate assay; type: biochemical
T1 construct: purchased Inspiralis
In short: (§1)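 E. coli gyrase tested by supercoiling and topo IV by relaxation in high-throughput plate format. IC50 from seven inhibitor concentrations; mean of three independent measurements.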

[2] = molecular target: T2, topo IV from E. coli (Escherichia coli, UniProt P20083); test: relaxation HTS plate assay; type: biochemical; conditions: read-out: IC50
T2 construct: purchased Inspiralis
T2 sequence (P0AFI2 whole entry): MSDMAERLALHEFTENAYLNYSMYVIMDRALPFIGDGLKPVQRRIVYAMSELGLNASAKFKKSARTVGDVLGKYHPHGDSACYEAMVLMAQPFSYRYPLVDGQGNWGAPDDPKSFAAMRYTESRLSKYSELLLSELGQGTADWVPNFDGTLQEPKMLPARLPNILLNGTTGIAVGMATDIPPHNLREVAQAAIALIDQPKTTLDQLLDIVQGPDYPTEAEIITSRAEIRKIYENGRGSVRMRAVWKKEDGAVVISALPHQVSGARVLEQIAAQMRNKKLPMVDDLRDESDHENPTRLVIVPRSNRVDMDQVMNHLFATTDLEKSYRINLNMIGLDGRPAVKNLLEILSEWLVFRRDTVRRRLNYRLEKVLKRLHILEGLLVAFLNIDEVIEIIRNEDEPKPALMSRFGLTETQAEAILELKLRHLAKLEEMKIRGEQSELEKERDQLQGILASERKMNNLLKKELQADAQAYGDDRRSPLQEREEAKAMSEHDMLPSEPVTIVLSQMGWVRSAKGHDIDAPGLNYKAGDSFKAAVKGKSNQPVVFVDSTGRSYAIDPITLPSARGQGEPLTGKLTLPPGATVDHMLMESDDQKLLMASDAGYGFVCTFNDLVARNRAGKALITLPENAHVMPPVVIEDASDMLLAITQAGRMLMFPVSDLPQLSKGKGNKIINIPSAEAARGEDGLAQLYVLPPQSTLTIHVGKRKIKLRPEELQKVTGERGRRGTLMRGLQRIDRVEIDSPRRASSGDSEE
T2 sequence (P20083 whole entry): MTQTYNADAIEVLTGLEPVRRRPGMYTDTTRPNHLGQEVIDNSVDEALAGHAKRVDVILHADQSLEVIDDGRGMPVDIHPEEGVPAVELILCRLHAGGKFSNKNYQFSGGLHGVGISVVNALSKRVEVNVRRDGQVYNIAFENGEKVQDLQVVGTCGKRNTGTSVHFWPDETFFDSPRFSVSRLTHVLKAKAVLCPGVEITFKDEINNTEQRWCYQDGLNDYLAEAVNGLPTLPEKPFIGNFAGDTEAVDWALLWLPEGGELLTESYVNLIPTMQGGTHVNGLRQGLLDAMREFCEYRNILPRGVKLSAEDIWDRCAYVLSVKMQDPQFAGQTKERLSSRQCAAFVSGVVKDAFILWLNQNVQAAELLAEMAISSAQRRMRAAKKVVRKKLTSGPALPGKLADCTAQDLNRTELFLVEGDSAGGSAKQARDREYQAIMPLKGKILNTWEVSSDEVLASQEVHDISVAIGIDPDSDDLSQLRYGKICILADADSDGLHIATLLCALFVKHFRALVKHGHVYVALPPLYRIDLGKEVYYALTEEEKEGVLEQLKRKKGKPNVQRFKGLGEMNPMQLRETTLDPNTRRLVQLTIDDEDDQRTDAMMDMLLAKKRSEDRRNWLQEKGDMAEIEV
In short: as §1

[3] = system: A. baumannii ATCC 17978; test: MIC broth microdilution (CLSI); type: cell-based; conditions: Acinetobacter baumannii, ATCC17978
In short: (§2)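 Cation-adjusted Mueller Hinton broth 2 microdilution, 5 × 10^4 cells per well in 100 μL, three parallel replicates, plates bagged to limit evaporation; growth read as OD600 after incubation.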

[4] = system: S. aureus ATCC 29213; test: MIC broth microdilution (CLSI); type: cell-based
In short: as §2

[5] = system: Enterococcus faecalis ATCC 29212; test: MIC broth microdilution (CLSI); type: cell-based, E. faecalis; conditions: Enterococcus faecalis, ATCC29212
[6] = system: E. coli ATCC 25922; test: MIC broth microdilution (CLSI); type: cell-based; conditions: Escherichia coli, ATCC25922
In short: (§3)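 Compounds were serially diluted in cation-adjusted Mueller Hinton broth 2 according to CLSI guidance, and each well received 5 × 10^4 cells. After 18 h at 37 °C and 150 rpm, absorbance at 600 nm defined the MIC as a triplicate-mean increment below 1.5-fold background.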

[7] = system: E. faecium ATCC 700221; test: MIC broth microdilution (CLSI); type: cell-based
[8] = system: Enterobacter cloacae spp. cloacae ATCC 13047; test: MIC broth microdilution (CLSI); type: cell-based; conditions: Enterobacter cloacae, ATCC13047
In short: as §3

[9] = system: K. pneumoniae ATCC 10031; test: MIC broth microdilution (CLSI); type: cell-based
In short: as §3

[10] = system: P. aeruginosa ATCC 27853; test: MIC broth microdilution (CLSI); type: cell-based; conditions: Pseudomonas aeruginosa, ATCC27853
In short: as §3

[11] = system: S. aureus (MRSA) ATCC 43300; test: MIC broth microdilution (CLSI); type: cell-based
In short: as §3

[12] = system: S. aureus (VISA) ATCC 700699; test: MIC broth microdilution (CLSI); type: cell-based
In short: as §3

[13] = read-out: MIC [µg/mL] (A. baumannii ATCC 17978)
[14] = Staphylococcus aureus, ATCC29213; read-out: MIC
[15] = Staphylococcus aureus, ATCC29213; read-out: MIC [µg/mL](S. aureus ATCC 29213)
[16] = Enterococcus faecium, ATCC700221, read-out: MIC
[17] = Klebsiella pneumoniae, ATCC10031, read-out: MIC
[18] = Staphylococcus aureus; read-out: MIC
[19] = Staphylococcus aureus; read-out: MIC [µg/mL](S. aureus MRSA ATCC4330)
[20] = Staphylococcus aureus, read-out: MIC

Structure (SMILES)	IC50 ([1]; IC50 [nM] E. coli DNA gyrase) [nM]	IC50 [2]	MIC ([3]; read-out: MIC) [µg/mL]	MIC [3, 13] [µg/mL]	MIC [4, 14] [µg/mL]	MIC [4, 15] [µg/mL]	MIC ([5]; read-out: MIC) [µg/mL]	MIC ([6]; read-out: MIC) [µg/mL]	MIC [7, 16] [µg/mL]	MIC ([8]; read-out: MIC) [µg/mL]	MIC [9, 17] [µg/mL]	MIC ([10]; read-out: MIC) [µg/mL]	MIC [11, 18] [µg/mL]	MIC [11, 19] [µg/mL]	MIC [12, 20] [µg/mL]	IC50 ([1]; read-out: IC50) [nM]	further results
Cc1[nH]c(C(=O)Nc2nc3c(N4CCC(O)CC4)cc(C(=O)O)cc3s2)c(Cl)c1Cl [7p, 2-(3,4-Dichloro-5-methyl-1H-pyrrole-2-carboxamido)-4-(4-hydroxypiperidin-1-yl)benzo[d]thiazole-6-carboxylic Acid]	< 10	140 ± 3 nM	> 64	> 64	4	4	< 0.0312	> 64	< 0.0312	> 64	4	> 64	4	4	0.5		MIC [9]: 4 µg/mL
COC[C@@H]1CCCN1c1cc(C(=O)O)cc2sc(NC(=O)c3[nH]c(C)c(Cl)c3Cl)nc12 [7o, (S)-2-(3,4-Dichloro-5-methyl-1H-pyrrole-2-carboxamido)-4-(2-(methoxymethyl)pyrrolidin-1-yl)benzo[d]thiazole-6-carboxylic Acid]	25	280 ± 14 nM	16	16	0.0625	0.0625	< 0.0312	16	< 0.0312	> 64	16	16	0.0625	0.0625	0.0625		
Cc1[nH]c(C(=O)Nc2nc3c(N4CCOCC4)cc(C(=O)O)cc3s2)cc1Cl [16a, 2-(4-Chloro-5-methyl-1H-pyrrole-2-carboxamido)-4-morpholinobenzo[d]thiazole-6-carboxylic Acid]	13 ± 5	< 100 nM and 38 nM	> 64	> 64	8	8	1	> 64	1	> 64	2	64	2	2	0.5		MIC [9]: 2 µg/mL
Cc1[nH]c(C(=O)Nc2nc3c(N4CCOCC4)cc(C(=O)O)cc3s2)cc1F [16b, 2-(4-Fluoro-5-methyl-1H-pyrrole-2-carboxamido)-4-morpholinobenzo[d]thiazole-6-carboxylic Acid]	31 ± 6	120 nM		> 64	64	64	16	> 64	2				32	32	8		MIC [7]: 2 µg/mL
Cc1[nH]c(C(=O)Nc2nc3c(N4[C@@H]5CC[C@H]4COC5)cc(C(=O)O)cc3s2)c(Cl)c1Cl [7h, 4-((1R,5S)-3-Oxa-8-azabicyclo[3.2.1]octan-8-yl)-2-(3,4-dichloro-5-methyl-1H-pyrrole-2-carboxamido)benzo[d]thiazole-6-carboxylic Acid]	16 ± 6		2	2	< 0.0312	< 0.0312	< 0.0312	4	< 0.0312	16	2	4	< 0.0312	< 0.0312	0.0625	13 ± 1	
COCC1CCCN1c1cc(C(=O)O)cc2sc(NC(=O)c3[nH]c(C)c(Cl)c3Cl)nc12 (centres unmarked) [7n, 2-(3,4-Dichloro-5-methyl-1H-pyrrole-2-carboxamido)-4-(2-(methoxymethyl)pyrrolidin-1-yl)benzo[d]thiazole-6-carboxylic Acid]	14 ± 6	210 ± 7 nM	8	8	0.0625	0.0625	< 0.0312	8	< 0.0312	> 64	8	8	0.0625	0.0625	0.0625		
Cc1[nH]c(C(=O)Nc2nc3c(N4CC(C)OC(C)C4)cc(C(=O)O)cc3s2)c(Cl)c1Cl (centres unmarked) [7f, 2-(3,4-Dichloro-5-methyl-1H-pyrrole-2-carboxamido)-4-(2,6-dimethylmorpholino)benzo[d]thiazole-6-carboxylic Acid]		82 ± 29 nM	1	1	< 0.0312	< 0.0312	< 0.0312	8	< 0.0312	> 64	8	8	< 0.0312	< 0.0312	< 0.0312	< 10	
Cc1[nH]c(C(=O)Nc2nc3c(N4CCOC(C)C4)cc(C(=O)O)cc3s2)c(Cl)c1Cl (centres unmarked) [7e, 2-(3,4-Dichloro-5-methyl-1H-pyrrole-2-carboxamido)-4-(2-methylmorpholino)benzo[d]thiazole-6-carboxylic Acid]		91 ± 3 nM	8	8	0.0625	0.0625	< 0.0312	8	< 0.0312	> 64	2	16	0.0625	0.0625	< 0.0312	< 10	
Cc1[nH]c(C(=O)Nc2nc3c(N4CCOC[C@H]4C)cc(C(=O)O)cc3s2)c(Cl)c1Cl [7c, (R)-2-(3,4-Dichloro-5-methyl-1H-pyrrole-2-carboxamido)-4-(3-methylmorpholino)benzo[d]thiazole-6-carboxylic Acid]	30 ± 9	60 ± 36 nM	8	8	0.0625	0.0625	< 0.0312	8	< 0.0312	> 64	1	8	0.125	0.125	0.0625	17 ± 8	
Cc1[nH]c(C(=O)Nc2nc3c(N4CCOC[C@@H]4C)cc(C(=O)O)cc3s2)c(Cl)c1Cl [7d, (S)-2-(3,4-Dichloro-5-methyl-1H-pyrrole-2-carboxamido)-4-(3-methylmorpholino)benzo[d]thiazole-6-carboxylic Acid]	23	95 ± 4 nM	8	8	0.125	0.125	< 0.0312	8	< 0.0312	> 64	2	8	0.125	0.125	0.0625		IC50 ([1]; IC50): 18 ± 7 nM
Cc1[nH]c(C(=O)Nc2nc3c(N4CCOCC4C)cc(C(=O)O)cc3s2)c(Cl)c1Cl (centres unmarked) [7b, 2-(3,4-Dichloro-5-methyl-1H-pyrrole-2-carboxamido)-4-(3-methylmorpholino)benzo[d]thiazole-6-carboxylic Acid]		78 ± 4 nM	4	4	0.125	0.125	< 0.0312	8	< 0.0312	32	2	8	< 0.0312	< 0.0312	< 0.0312	< 10	
Cc1[nH]c(C(=O)Nc2nc3c(N4CCOCC4)cc(C(=O)O)cc3s2)c(Cl)c1Cl [7a, 2-(3,4-Dichloro-5-methyl-1H-pyrrole-2-carboxamido)-4-morpholinobenzo[d]thiazole-6-carboxylic Acid]																< 10	MIC ([4]; Staphylococcus aureus, ATCC29213): 0.25 µg/mL; MIC ([4]; Staphylococcus aureus, ATCC29213, read-out: MIC [µg/mL](S. aureus ATCC 29213)): 0.25 µg/mL; MIC [5]: < 0.0312 µg/mL; MIC [6]: 8 µg/mL; MIC ([7]; Enterococcus faecium, ATCC700221): < 0.0312 µg/mL; MIC [8]: > 64 µg/mL; MIC ([9]; Klebsiella pneumoniae, ATCC10031): 0.5 µg/mL; MIC [10]: 16 µg/mL; MIC ([11]; Staphylococcus aureus): 0.0625 µg/mL; MIC ([11]; Staphylococcus aureus, read-out: MIC [µg/mL](S. aureus MRSA ATCC4330)): 0.25 µg/mL; MIC [12]: <0.03125 µg/mL; MIC ([12]; Staphylococcus aureus): < 0.0312 µg/mL
